Assay results from patent US8377974B2 (Millennium Pharmaceuticals, Inc., priority 2004, dated 2013).

What follows are compounds tested against T1, human plasma protein factor Xa (Homo sapiens, UniProt P00742) (assay: Factor Xa IC50 determination: cleavage of paranitroanilide substrate S-2765 in 96-well plates). Conditions: fXa 1 nM, S-2765 100 μM, Tris buffered saline pH 7.4, room temperature.
T1 construct: measure proteolytic activity of the enzyme (factor Xa); purchased Haematologic Technologies (Essex Junction, Vt.); host or cells: human plasma
T1 sequence (P00742 235-488 limits assumed): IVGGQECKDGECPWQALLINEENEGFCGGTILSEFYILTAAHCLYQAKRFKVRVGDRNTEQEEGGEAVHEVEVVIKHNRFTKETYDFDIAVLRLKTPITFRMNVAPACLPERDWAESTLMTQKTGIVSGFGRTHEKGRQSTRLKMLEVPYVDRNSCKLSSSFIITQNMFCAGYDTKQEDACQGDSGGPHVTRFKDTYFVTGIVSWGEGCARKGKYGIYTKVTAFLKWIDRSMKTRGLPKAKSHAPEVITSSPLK
T1 sequence (P00742 41-179 partner limits assumed): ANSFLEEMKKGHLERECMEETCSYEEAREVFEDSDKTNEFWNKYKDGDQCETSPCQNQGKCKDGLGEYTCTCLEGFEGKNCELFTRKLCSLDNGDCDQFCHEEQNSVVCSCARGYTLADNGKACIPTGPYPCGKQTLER
Assay type: biochemical
Description: This example illustrates methods for evaluating the compounds of the invention, along with results obtained for such assays. The in vitro and in vivo Factor Xa isoform activities of the inventive compounds can be determined by various procedures known in the art, such as a test for their ability to inhibit the activity of the Factor Xa isoform. […] The IC50 value is the concentration (in nM) of the compound required to provide 50% inhibition of Factor Xa isoform.
An in vitro assay for detecting and measuring inhibition activity against Factor Xa is as follows:
The substrate S-2765 (Z-D-Arg-Gly-Arg-pNA.HCl) was obtained from Diapharma (West Chester, Ohio).
The human plasma protein factor Xa was purchased from Haematologic Technologies (Essex Junction, Vt.).
All assays, which are performed in 96-well microtiter plates, measure proteolytic activity of the enzyme (factor Xa) by following cleavage of paranitroanilide substrate. The assay buffer used for proteolytic assays was Tris buffered saline (20 mM Tris, 150 mM NaCl, 5 mM CaCl2, 0.1% Bovine serum albumin (BSA), 5% Dimethly Sulfoxide (DMSO) pH 7.4). In a 96-well microtiter plate, inhibitor was serially diluted to give a range of concentrations from 0.01 nM to 10 μM (final). Duplicate sets of wells were assayed and control wells without inhibitor were included. Enzyme was added to each well, (fXa concentration=1 nM), the plate was shaken for 5 seconds and then incubated for 5 minutes at room temperature. S2765 was added (100 μM final) and the plate was shaken for 5 seconds (final liquid volume in each well was 200 μl). The degree of substrate hydrolysis was measured at 405 nm on a Thermomax plate reader (Molecular Devices, Sunnyvale, Calif.) for 2 minutes. The initial velocities (mOD/min), for each range of inhibitor concentrations, were fitted to a four parameter equation using Softmax data analysis software. The parameter C, derived from the resulting curve-fit, corresponded to the concentration for half maximal inhibition (IC50).
`N=C(c1ccc(C2=NOC(CNC(=O)c3ccc(Cl)s3)C2)c(OC2CCCCC2)c1)N1CCCC1` (stereo not shown) [Example 117, 5-Chloro-thiophene-2-carboxylic acid {3-[2-cyclohexyloxy-4-(imino-pyrrolidin-1-yl-methyl)-phenyl]-4,5-dihydro-isoxazol-5-ylmethyl}-amide] showed an IC50 of at most 100 nM.
Compound `CCN(CC)CCN(C)C(=O)c1ccc(C2=NOC(CNC(=O)c3ccc(Cl)s3)C2)cc1` (stereo not shown) [Example 166, 5-Chloro-thiophene-2-carboxylic acid (3-{4-[(2-diethylamino-ethyl)-methyl-carbamoyl]-phenyl}-4,5-dihydro-isoxazol-5-ylmethyl)-amide] has an IC50 of at most 100 nM.
`CCN(CC)CCN(C)C(=O)c1ccc(-c2cc(CNC(=O)c3ccc(Cl)s3)on2)cc1` [Example 168, 5-Chloro-thiophene-2-carboxylic acid (3-{4-[(2-diethylamino-ethyl)-methyl-carbamoyl]-phenyl}-isoxazol-5-ylmethyl)-amide] was tested, and the IC50 was at least 500 nM.
With `O=C(NCc1cc(-c2cccc(Br)c2)no1)c1ccc(Cl)s1` [Example 4, 5-Chloro-thiophene-2-carboxylic acid [3-(3-bromo-phenyl)-isoxazol-5-ylmethyl]-amide] the IC50 was at least 500 nM.
`CN(C)C(=N)c1ccc(C2=NOC(CNC(=O)c3ccc(Cl)s3)C2)cc1` (stereo not shown) [Example 8, 5-Chloro-thiophene-2-carboxylic acid {3-[4-(N,N-dimethyl-carbamimidoyl)-phenyl]-4,5-dihydro-isoxazol-5-ylmethyl}-amide] was tested, and the IC50 was at most 100 nM.
For `N=C(c1ccc(C2=NOC(CNC(=O)c3ccc(Cl)s3)C2)c(N2CCCCCC2)c1)N1CCCC1` (stereo not shown) [Example 92, 5-Chloro-thiophene-2-carboxylic acid {3-[2-azepan-1-yl-4-(imino-pyrrolidin-1-yl-methyl)-phenyl]-4,5-dihydro-isoxazol-5-ylmethyl}-amide], the IC50 was at most 100 nM.
Work on `C[C@@H](NC(=O)c1ccc(Cl)s1)c1cc(-c2ccc(C3=NCCN3C)cc2)no1` [Example 50, (R)-5-Chloro-thiophene-2-carboxylic acid (1-{3-[4-(1-methyl-4,5-dihydro-1H-imidazol-2-yl)-phenyl]-isoxazol-5-yl}-ethyl)-amide] yielded an IC50 of at most 100 nM.
Compound `COc1ccc(-c2cc(CNC(=O)c3ccc(Cl)s3)on2)cc1` [Example 152, 5-Chloro-thiophene-2-carboxylic acid [3-(4-methoxy-phenyl)-isoxazol-5-ylmethyl]-amide] has an IC50 of at least 500 nM.
In the case of `CN(C)C(=N)c1ccc(-c2cc(CNC(=O)c3ccc(Cl)s3)ccc2F)cc1` [Example 377, N-((3-(4-(N,N-Dimethylcarbamimidoyl)phenyl)-4-fluorophenyl)methyl)-5-chlorothiophene-2-carboxamide], the IC50 is reported as at most 100 nM.
Work on `CCN(C)C(=N)c1ccc(-c2cc(CNC(=O)c3ccc(Cl)s3)on2)cc1` [Example 28, 5-Chloro-thiophene-2-carboxylic acid {3-[4-(N-ethyl-N-methyl-carbamimidoyl)-phenyl]-isoxazol-5-ylmethyl}-amide] yielded an IC50 of at most 100 nM.
`CC(C)Oc1cc(C2=NCCN2C)ccc1C1=NOC(CNC(=O)c2ccc(Cl)s2)C1` (stereo not shown) [Example 110, 5-Chloro-thiophene-2-carboxylic acid {3-[2-isopropoxy-4-(1-methyl-4,5-dihydro-1H-imidazol-2-yl)-phenyl]-4,5-dihydro-isoxazol-5-ylmethyl}-amide] showed an IC50 of at most 100 nM.
`COc1ccc(-c2ccc(C3=NOC(CNC(=O)c4ccc(Cl)s4)C3)cc2)c(CO)c1` (stereo not shown) [Example 207, 5-Chloro-thiophene-2-carboxylic acid [3-(2′-hydroxymethyl-4′-methoxy-biphenyl-4-yl)-4,5-dihydro-isoxazol-5-ylmethyl]-amide] showed an IC50 of at least 500 nM.
With `Nc1ccccc1-c1ccc(C2=NOC(CNC(=O)c3ccc(Cl)s3)C2)cc1` (stereo not shown) [Example 186, 5-Chloro-thiophene-2-carboxylic acid [3-(2′-amino-biphenyl-4-yl)-4,5-dihydro-isoxazol-5-ylmethyl]-amide] the IC50 was 100 to 500 nM.
